Source: ChEMBL document CHEMBL1255420, “Fluoroquinolone resistance in Streptococcus dysgalactiae subsp. equisimilis and evidence for a shared global gene pool with Streptococcus pyogenes” (2010)

Legend:
[1] = test system: Streptococcus dysgalactiae subsp. equisimilis; assay: Antibacterial activity against gyrA04, parC allele containing Streptococcus dysgalactiae subsp. equisimilis with GyrA S81F, S79F mutant by CLSI […] method; format: functional
[2] = test system: Streptococcus dysgalactiae subsp. equisimilis; assay: Antibacterial activity against gyrA04, parC15 allele containing Streptococcus dysgalactiae subsp. equisimilis with GyrA S81F, S79F/ParC N91D mutant by CLSI […] method; format: functional
[3] = test system: Streptococcus dysgalactiae subsp. equisimilis; assay: Antibacterial activity against gyrA04, parC17 allele containing Streptococcus dysgalactiae subsp. equisimilis with GyrA S81F, S79F/ParC N91D, P140S mutant by CLSI […] method; format: functional
[4] = test system: Streptococcus dysgalactiae subsp. equisimilis; assay: Antibacterial activity against gyrA03, parC08 allele containing Streptococcus dysgalactiae subsp. equisimilis with GyrA E85K, S79F mutant by CLSI […] method; format: functional
[5] = test system: Streptococcus dysgalactiae subsp. equisimilis; assay: Antibacterial activity against gyrA03, parC06 allele containing Streptococcus dysgalactiae subsp. equisimilis with GyrA E85K, S79Y mutant by CLSI […] method; format: functional
[6] = test system: Streptococcus dysgalactiae subsp. equisimilis; assay: Antibacterial activity against gyrA04, parC09 allele containing Streptococcus dysgalactiae subsp. equisimilis with GyrA S81F/ParC D83N mutant by CLSI […] method; format: functional
[7] = test system: Streptococcus dysgalactiae subsp. equisimilis; assay: Antibacterial activity against gyrA04, parC13 allele containing Streptococcus dysgalactiae subsp. equisimilis with GyrA S81F, S79A mutant by CLSI […] method; format: functional
[8] = test system: Streptococcus dysgalactiae subsp. equisimilis; assay: Antibacterial activity against gyrA03, parC10 allele containing Streptococcus dysgalactiae subsp. equisimilis with GyrA E85K/ParC D83G mutant by CLSI […] method; format: functional
[9] = test system: Streptococcus dysgalactiae subsp. equisimilis; assay: Antibacterial activity against gyrA04, parC14 allele containing Streptococcus dysgalactiae subsp. equisimilis with GyrA S81F/ParC N91D mutant by CLSI […] method; format: functional
[10] = test system: Streptococcus dysgalactiae subsp. equisimilis; assay: Antibacterial activity against gyrA01, parC04 allele containing Streptococcus dysgalactiae subsp. equisimilis with GyrA S79F mutant by CLSI […] method; format: functional
[11] = test system: Streptococcus dysgalactiae subsp. equisimilis; assay: Antibacterial activity against gyrA01, parC17 allele containing Streptococcus dysgalactiae subsp. equisimilis with GyrA S79F, S79F/ParC N91D, P140S mutant by CLSI […] method; format: functional
[12] = test system: Streptococcus dysgalactiae subsp. equisimilis; assay: Antibacterial activity against gyrA01, parC19 allele containing Streptococcus dysgalactiae subsp. equisimilis with GyrA S79A/ParC N91D, P140S mutant by CLSI […] method; format: functional
[13] = test system: Streptococcus dysgalactiae subsp. equisimilis; assay: Antibacterial activity against gyrA01, parC12 allele containing Streptococcus dysgalactiae subsp. equisimilis with ParC G166E mutant by CLSI […] method; format: functional
[14] = test system: Streptococcus dysgalactiae subsp. equisimilis; assay: Antibacterial activity against gyrA01, parC03 allele containing Streptococcus dysgalactiae subsp. equisimilis with GyrA S79P mutant by CLSI […] method; format: functional
[15] = test system: Streptococcus dysgalactiae subsp. equisimilis; assay: Antibacterial activity against gyrA01, parC allele containing Streptococcus dysgalactiae subsp. equisimilis with ParC N91D, P140S mutant by CLSI […] method; format: functional
[16] = test system: Streptococcus dysgalactiae subsp. equisimilis; assay: Antibacterial activity against gyrA01, parC14 allele containing Streptococcus dysgalactiae subsp. equisimilis with ParC N91D mutant by CLSI […] method; format: functional
[17] = test system: Streptococcus dysgalactiae subsp. equisimilis; assay: Antibacterial activity against gyrA05, parC05 allele containing Streptococcus dysgalactiae subsp. equisimilis with GyrA D142N mutant by CLSI […] method; format: functional
[18] = test system: Streptococcus dysgalactiae subsp. equisimilis; assay: Antibacterial activity against gyrA01, parC allele containing Streptococcus dysgalactiae subsp. equisimilis by CLSI […] method; format: functional
[19] = test system: Streptococcus dysgalactiae subsp. equisimilis; assay: Antibacterial activity against gyrA02, parC17 allele containing Streptococcus dysgalactiae subsp. equisimilis with GyrA S81Y, S79F/ParC N91D, P140S mutant by CLSI […] method

## C[C@H]1COc2c(N3CCN(C)CC3)c(F)cc3c(=O)c(C(=O)O)cn1c23.C[C@H]1COc2c(N3CCN(C)CC3)c(F)cc3c(=O)c(C(=O)O)cn1c23.O [LEVOFLOXACIN]
[1]
  MIC: > 32 µg/mL
[2]
  MIC: > 32 µg/mL
[3]
  MIC: > 32 µg/mL
[4]
  MIC: > 32 µg/mL
[5]
  MIC: > 32 µg/mL
[6]
  MIC: > 8 µg/mL
[7]
  MIC: 12 µg/mL
[8]
  MIC: 8 µg/mL
[9]
  MIC: 4 µg/mL
[10]
  MIC: 3 µg/mL
[11]
  MIC: 1.5 µg/mL
[12]
  MIC: 2 µg/mL
[13]
  MIC: 1 µg/mL
[14]
  MIC: 0.75 µg/mL
[15]
  MIC: 0.19 µg/mL
[16]
  MIC: 0.5 µg/mL
[17]
  MIC: 0.38 µg/mL
[18]
  MIC: 0.38 µg/mL
[19]
  MIC: > 32 µg/mL
